{
  "source": "patent US8067423B2",
  "about": "“Polymorphs of dasatinib isopropyl alcohol and process for preparation thereof” (Teva Pharmaceutical Industries Ltd., priority 2007, dated 2011)",
  "assay_type_in_all_cases": "physicochemical",
  "key": {"[1]": {"test": "Heating of form A3 on oil bath up to 208° C., MS check", "settings": "200 mg heated gradually up to 208° C. at final 0.7 Pa for about 15 min", "protocol": "Dasatinib (200 mg, form A3) was heated on oil bath gradually up to 208° C. at final 0.7 Pa for about 15 min."}, "[2]": {"test": "Blend with excipients pressed to a tablet, analyzed by PXRD", "settings": "70 mg form A3 with lactose monohydrate, magnesium stearate, microcrystalline celulose, hydroxypropylmethyl celulose", "protocol": "(§1) XRD diffraction was performed on X-Ray powder diffractometer: Philips X'pert Pro powder diffractometer, CuKα radiation, λ=1.5418 Å. X'Celerator detector active length (2 theta)=2.122°, laboratory temperature 22-25° C. Zero background sample holders. Prior to analysis the samples were gently ground by means of mortar and pestle in order to obtain a fine powder. The ground sample was adjusted into a cavity of the sample holder and the surface of the sample was smoothed by means of a cover glass."}, "[3]": {"test": "Slurry of form N-6 in methanol: conversion to form B, solid phase analyzed by PXRD", "settings": "for content of form B in the recovered solid (PXRD): form N-6 75 mg slurried in 1 ml methanol, filtered, dried on air", "protocol": "as §1\nDasatinib (form N-6, 75 mg) was put into vial and 1 ml of methanol was added. The slurry was then left at 0° C. for 2 days. The solid phase was filtered off and left to dry on air.\nDasatinib (form N-6, 75 mg) was put into vial and 1 ml of methanol was added. The slurry was then left at 20° C. for 2 days respectively. The solid phase was filtered off and left to dry on air."}},
  "data": [
    {"smiles": "Cc1nc(Nc2ncc(C(=O)Nc3c(C)cccc3Cl)s2)cc(N2CCN(CCO)CC2)n1", "note": "[form A3, dasatinib]", "values": [
      {"measurement": "chemical change on heating (MS)", "setting": "[1]", "value": "without any chemical change"},
      {"measurement": "sublimation on heating", "setting": "[1]", "value": "None sublimation was observed"},
      {"measurement": "crystalline form found in the pressed tablet (PXRD)", "setting": "[2]", "value": "belonging to form A3"}
    ]},
    {"smiles": "Cc1nc(Nc2ncc(C(=O)Nc3c(C)cccc3Cl)s2)cc(N2CCN(CCO)CC2)n1", "note": "[form B, dasatinib]", "values": [
      {"measurement": "stability of the crystalline form", "setting": "[3]; at a temperature of about 20° C. and below", "value": "relatively stable"}
    ]},
    {"smiles": "Cc1nc(Nc2ncc(C(=O)Nc3c(C)cccc3Cl)s2)cc(N2CCN(CCO)CC2)n1", "note": "[form N-6, dasatinib]", "values": [
      {"measurement": "content of form B in the recovered solid (PXRD)", "setting": "[3]; left at 0° C. for 2 days", "value": "about 10%"},
      {"measurement": "content of form B in the recovered solid (PXRD)", "setting": "[3]; left at 20° C. for 2 days", "value": "about 1%"},
      {"measurement": "polymorphic conversion on slurrying", "setting": "[3]; slurried at about 20° C. to about 0° C. for 2 days", "value": "converted to form B"}
    ]}
  ]
}
